{"source": "paper PMC5824847", "about": "“Linear peptidomimetics as potent antagonists of Staphylococcus aureus agr quorum sensing” (Scientific Reports, 2018)", "key": {"[1]": {"tested_on": "S. aureus virulence gene expression (agr; RNAIII, hla, spa reporters)", "test": "Agar diffusion reporter assay, overall activity on the three reporters", "format": "cell-based, Staphylococcus aureus", "settings": "TSA plates with RNAIII::lacZ, hla::lacZ and spa::lacZ reporters, 10 μg/well (500 μg/ml; 20 μl/well)", "quoted_text": "The reporter assay was conducted as described by Nielsen et al. (2010) using three different lacZ transcriptional reporter strains, PC203, PC322 and SH101F[37]. Test compounds dissolved in H2O or DMSO was added to agar wells at indicated concentrations and solvent only was included as a control. Incubation until blue color appeared in plates varied from 9 h to 48 h. The ability of the peptidomimetics to influence virulence gene expression was observed based on the color change around the wells; a white halo represents downregulation of virulence gene expression, while a blue halo represents upregulation of expression, with the size of the halo being indicative of the degree of interference."}, "[2]": {"test": "RP-HPLC retention time (hydrophobicity)", "format": "physicochemical", "settings": "analytical RP-HPLC; used by the paper as a measure of hydrophobicity", "protocol": "The synthesis of the peptidomimetics was performed as described by Oddo et al. (2015)[51]. According to this, a combination of Fmoc Solid Phase Peptide Synthesis (SPPS) and sub-monomer approach was applied. After the synthesis, the peptidomimetics were purified (>95%) by preparative HPLC and the purity was determined through analytical HPLC. Moreover, the MALDI-TOF-MS was used in order to verify the identity of the peptidomimetics."}, "[3]": {"tested_on": "8325-4 and RN10829 WT S. aureus strains", "test": "Minimum Inhibitory Concentration (MIC)", "format": "cell-based, Staphylococcus aureus", "settings": "TSB, two-fold dilution series 4 to 256 μg/ml, approx. 5 × 10^5 CFU/ml, 24 hours at 37 °C; lowest concentration with no growth; values identical for 8325-4 and RN10829 WT", "protocol": "Overnight cultures (24 h, 37 °C, 200 rpm in TSB) of S. aureus strains were diluted 5000X in fresh TSB and was aliquoted into 96-well microtiter plates with two-fold dilution series of the peptidomimetics ranging from 4 μg/ml to 256 μg/ml (final concentration) to reach an initial cell density of approximately 5 × 10^5 CFU/ml. DMSO was used as control and the plate was incubated for 24 hours at 37 °C. The MICs of the peptidomimetics were recorded as the lowest concentration for which no bacterial growth was observed.\nSupplementary Table S2: Minimum Inhibitory Concentration (MIC) of the peptidomimetics tested on 8325-4 and RN10829 WT S. aureus strains (MIC values were identical for both strains, thus are represented here in one column)."}}, "note": "Entries after “also recorded” stand apart in the source; their conditions may differ. Square brackets hold non-standard residues; d marks the D form. Peptide text beside a SMILES is read from it. N(1-naphthylmethyl)Gly = O=C(O)CNCc1cccc2ccccc12; N(4-MeBn)Gly = Cc1ccc(CNCC(=O)O)cc1; NBuGly = CCCCNCC(=O)O"}
{"smiles": "CCCCN(CC(=O)N(CC(=O)NCC(N)=O)Cc1cccc2ccccc12)C(=O)[C@H](CCCCN)NC(=O)[C@H](CCCCN)NC(=O)CN(Cc1ccc(C)cc1)C(=O)CNCc1cccc2ccccc12", "note": "[G7] (H-[N(1-naphthylmethyl)Gly][N(4-MeBn)Gly]KK[NBuGly][N(1-naphthylmethyl)Gly]G-NH2)", "values": [{"measurement": "Activity on virulence gene expression (agr modulatory activity), overall", "setting": "[1]", "result": "increased activity; also recorded: greatly improved agr-inhibitory activity compared to D3"}, {"measurement": "Rt (RP-HPLC retention time)", "setting": "[2]", "result": 17.5, "unit": "min"}, {"measurement": "MIC", "setting": "[3]", "result": 64, "unit": "µg/mL"}]}
